Data published in patent US3984440A, “Polyene compounds” (Hoffmann-La Roche Inc., priority 1973, dated 1976).

Experiments:
[1] = tested on: papillomas induced with dimethyl-benzanthracene and croton oil; assay: papilloma test: regression of tumors induced with dimethyl-benzanthracene and croton oil; format: in vivo; conditions: mice, intraperitoneal, 400mg/kg/week, within two weeks
Procedure: The polyene compounds of formula I are useful in the topical and systemic prophylaxis and treatment of benignant and malignant neoplasias and premalignant lesions. The tumor-inhibiting activity of the polyene compounds of the invention is significant. […] The diameter of such papillomas in mice decreased by 55% within two weeks upon intraperitoneal administration of 400mg/kg/week of 9-(2,2,5,7,8-pentamethyl-chroman-6-yl)-3,7-dimethyl-nona-2,4,6,8-tetraen-1-oic acid.

[2] = acute toxicity after intraperitoneal administration in rape oil; conditions: mouse, in vivo, ip

Q: With CC(/C=C/c1c(C)c(C)c2c(c1C)CCC(C)(C)O2)=C\C=C\C(C)=C\C(=O)O [9-(2,2,5,7,8-pentamethyl-chroman-6-yl)-3,7-dimethyl-nona-2,4,6,8-tetraen-1-oic acid] as the compound, how does the “decrease of diameter of papillomas” value [1] read?
A: The value was 55%.

Q: What about the LD50 [2] of the same compound?
A: The LD50 was 950 mg/kg.

Q: What about the LD50 at 24 h [2] of the same compound?
A: Its LD50 at 24 h is greater than 4000 mg/kg.

Q: What about the LD50 at 240 h [2] of the same compound?
A: Its LD50 at 240 h is 950 mg/kg.

Q: What about the LD50 at 480 h [2] of the same compound?
A: Its LD50 at 480 h is 950 mg/kg.
